Columns and labels:
[1] = system: imiquimod-induced psoriasis relapse; assay: Imiquimod-induced psoriasis relapse model; assay type: in vivo, mice; conditions: imeglimin 40 mg/kg orally, alternate days Day 8 to 22, then daily from Day 23; compared to IMQ
Protocol: To the left auricle of each mouse, 62.5 mg of 5% imiquimod cream (Beselna Cream 5%) was applied once daily a total of seven times (Days 1 to 7) in accordance with Example 19 to induce imiquimod-induced psoriasis. Thereafter, the imiquimod treatment was interrupted, and imeglimin (40 mg/kg) was orally administered on alternate days for 2 weeks (Day 8 to 22) (IMG). Mice without administration of imeglimin were designated IMQ. On Day 23, the imiquimod treatment was resumed, and 62.5 mg of 5% imiquimod cream (Beselna Cream 5%) was applied once daily a total of […]. In parallel, imeglimin (40 mg/kg) was orally administered daily to IMG.

ATP-loaded vesicles = assay: MANT-ATP accumulation in ATP-loaded granules of keratinocytes (confocal microscopy); assay type: cell-based, human; conditions: 10 µM imeglimin, 19 hours; 0.3 mM MANT-ATP
Protocol: Keratinocytes were cultured in the same manner as in Example 8. Keratinocytes were cultured at 4 × 10^4 cells/ml in a glass-bottom dish (35 mm, manufactured by Matsunami Glass Ind., Ltd.) at 37°C in 5% CO2 for 2 days. The culture medium was then replaced with a medium supplemented with MANT-ATP (manufactured by Invitrogen) at a final concentration of 0.3 mM, and further incubation was performed for 4.5 hours. Subsequently, imeglimin was added thereto to a final concentration of 10 µM, and further incubation was performed at 37°C in 5% CO2 for 19 hours. Thereafter, the cells were washed twice with HBSS (manufactured by Gibco) and observed using an inverted confocal laser microscope (FV-1000 OSR, manufactured by Olympus Corporation).

VNUT = molecular target: T1, VNUT (Homo sapiens, UniProt Q9BYT1); assay: Inhibitory effect on VNUT (data not shown); assay type: biochemical
T1 sequence (Q9BYT1 1-436): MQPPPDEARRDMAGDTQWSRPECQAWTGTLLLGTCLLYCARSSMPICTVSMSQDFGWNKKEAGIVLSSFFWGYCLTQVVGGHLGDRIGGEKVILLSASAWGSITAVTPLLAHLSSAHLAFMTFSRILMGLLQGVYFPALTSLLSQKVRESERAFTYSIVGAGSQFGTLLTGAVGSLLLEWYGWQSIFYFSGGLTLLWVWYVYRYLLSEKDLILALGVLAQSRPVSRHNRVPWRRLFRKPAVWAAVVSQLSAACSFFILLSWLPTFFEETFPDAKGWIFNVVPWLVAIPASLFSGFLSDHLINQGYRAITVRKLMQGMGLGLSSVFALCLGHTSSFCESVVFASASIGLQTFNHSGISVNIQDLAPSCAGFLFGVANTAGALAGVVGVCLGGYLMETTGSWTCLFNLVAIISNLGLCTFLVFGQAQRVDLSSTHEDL

V-ATPase [2] = molecular target: V-ATPase (Homo sapiens, UniProt P38606); assay: Inhibitory effect on V-ATPase (data not shown); assay type: biochemical
catecholamine transport = assay: Catecholamine (3H-dopamine) transport in chromaffin granule membranes; assay type: biochemical, bovine
Protocol: (§1) Chromaffin granule membranes were prepared from adrenal glands collected from slaughtered cattle according to Reference A (Nathan Nelson et al., 1988, Chromaffin Granule Proton Pump, Methods in Enzymology, 157, 619-633). Chromaffin granule membranes prepared by sucrose density gradient centrifugation were suspended in 2 ml of SME buffer (20 mM MOPS-tris (pH 7.0), 0.3 M sucrose, 5 mM EDTA, 10 µg/ml leupeptin, and 10 µg/ml pepstatin) + 25% glycerol, and the resulting suspension was aliquoted and stored at -80°C. Under these conditions, the ATP transport activity, the V-ATPase activity, and the catecholamine transport activity remain fully active for at least one year.
A catecholamine transport inhibition experiment was carried out in the same manner as the ATP transport experiment except that the experiment used a measurement liquid containing 20 mM MOPS-tris (pH 7.0), 0.1 M sucrose, 0.1 M potassium chloride, 5 mM magnesium acetate, and about 5 µg of chromaffin granule membranes. To 0.5 ml of the measurement liquid, 2 mM ATP was added, and the resulting mixture was incubated at 30°C for about 5 minutes, followed by addition of^3 [H]-dopamine thereto to a final concentration of 10 µM. After further incubation at 30°C for 15 minutes, 0.2 ml of the reaction liquid was subjected to suction filtration through a Millipore MCE membrane filter with a pore size of 0.45 µm, and the radioactivity on the filter was measured (N = 3). The substrate, ^3[H]-dopamine, was prepared by mixing 3,4-[RING-2,5,6-^3H]dihydroxyphenylethylamine (dopamine) (30 Ci/mmol) (manufactured by New England Nuclear) with dopamine hydrochloride (manufactured by LKT Laboratories) such that a final concentration of 0.1 mM was achieved during the use.
(§2) Chromaffin granule membrane vesicles were prepared in the same manner as in Example 5, and uptake of radiolabeled ATP into the vesicles was measured. Transport activity of catecholamine (dopamine) and ATP-dependent proton transport by V-ATPase were also measured in the same manner as in Example 5.

V-ATPase [3] = molecular target: T2, V-ATPase (Bos taurus, UniProt P31404); assay: ATP-dependent proton transport by V-ATPase (acridine orange / oxonol-V fluorescence quenching); assay type: biochemical, bovine
T2 construct: from tissue; host or cells: bovine adrenal medulla chromaffin granule membranes
Protocol: as §1
ATP-dependent proton transport by V-ATPase was measured according to Reference B. Proton transport activity was measured using a spectrofluorometer at excitation wavelength of 492 nm and a fluorescence wavelength 540 nm, wherein fluorescence quenching of acridine orange was used as an index (N = 2). The transmembrane potential generated was measured using a spectrofluorometer at an excitation wavelength of 580 nm and a fluorescence wavelength of 630 nm, wherein fluorescence quenching of oxonol-V was used as an index (N = 2). The acridine measurement liquid (2 ml) contained 20 mM MOPS-tris (pH 7.0), 0.2 M sucrose, 0.1 M potassium chloride, 5 mM magnesium acetate, 0.2 µg valinomycin, 2 µM acridine orange, and about 20 µg of chromaffin granules. The oxonol-V measurement liquid (2 ml) contained 20 mM MOPS-tris (pH 7.0), 0.3 M sucrose, 5 mM magnesium acetate, 5 µM oxonol-V, and about 20 µg of chromaffin granules.
as §2

[4] = concentrations of up to 5 mM, data not shown

T2 sequence (P31404 whole entry, looked up): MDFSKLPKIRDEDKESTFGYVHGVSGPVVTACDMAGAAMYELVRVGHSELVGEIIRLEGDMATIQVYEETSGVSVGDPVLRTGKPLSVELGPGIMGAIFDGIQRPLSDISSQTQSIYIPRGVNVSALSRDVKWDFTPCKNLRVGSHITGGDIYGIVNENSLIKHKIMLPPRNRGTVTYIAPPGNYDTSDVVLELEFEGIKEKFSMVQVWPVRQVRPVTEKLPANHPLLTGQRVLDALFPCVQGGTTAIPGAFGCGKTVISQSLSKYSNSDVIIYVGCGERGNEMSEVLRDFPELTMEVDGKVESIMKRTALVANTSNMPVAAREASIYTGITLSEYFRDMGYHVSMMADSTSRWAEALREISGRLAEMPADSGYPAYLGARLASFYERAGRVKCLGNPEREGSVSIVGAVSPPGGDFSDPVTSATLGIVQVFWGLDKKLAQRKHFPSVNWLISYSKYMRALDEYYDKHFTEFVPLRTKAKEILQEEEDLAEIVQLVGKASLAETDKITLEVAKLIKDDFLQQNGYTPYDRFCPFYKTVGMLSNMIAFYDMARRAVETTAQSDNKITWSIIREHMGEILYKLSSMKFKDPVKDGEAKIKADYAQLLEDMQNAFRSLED
Chain of V-ATPase (Homo sapiens, UniProt P38606) (P38606 whole entry): as the sequence (P31404 whole entry, looked up) above, with R10L, V131I, N157S, I199V, S204T, E576D, V590L, A599S counted along it

SMILES	psoriatic symptoms (auricular thickness) after resumed imiquimod treatment [1]	accumulation of MANT-ATP in granules (ATP-loaded vesicles)	inhibitory effect on VNUT (VNUT)	inhibitory effect on V-ATPase (V-ATPase [2])	inhibition of catecholamine transport (catecholamine transport; [4])	ATP-dependent dopamine transport activity (catecholamine transport; in the presence of 5 mM PEP, control 11.07 ± 0.129, N = 3) [nmol/mg protein]	quenching of oxonol-V fluorescence (transmembrane potential) (V-ATPase [3]; addition of 5 mM PEP, ATP alone quenched by 40%, N = 2)	quenching of acridine orange fluorescence (proton transport) (V-ATPase [3]; addition of 5 mM PEP, ATP alone quenched by 62%, N = 2)	inhibition of V-ATPase (V-ATPase [3]; [4])
C[C@H]1N=C(N(C)C)N=C(N)N1 [imeglimin]	markedly reduced	this accumulation was absent	neither imeglimin nor metformin exhibited a strong inhibitory effect	neither imeglimin nor metformin exhibited a strong inhibitory effect					
C=C(OP(=O)(O)O)C(=O)O [PEP, phosphoenolpyruvic acid]					did not inhibit	12.41 ± 0.250	did not change the level of quenching	did not change the level of quenching	did not inhibit
